Values after ≈ are worked out from the molar mass of the structure shown. Read-outs that look alike come from different tables or passages of the source.
What was measured:
[1] = system: SOD1 G93A transgenic mouse; assay: Efficacy in the SOD1 G93A transgenic mouse model of ALS; assay type: in vivo; conditions: 25 mg/kg I.P. daily from day 96
Protocol: Briefly, Congenic SOD1-G93A mice were doced with up to 50 mg/kg of both compounds (IP) to evaluate any toxicity issues prior to initiating the efficacy study. Also, mice administered 20 mg of each compound had high plasma and brain levels at 30 minutes. Next, individually genotyped SOD1-G93A mice (Prize4life-Jackson Labs) were treated with each compound (25 mg/kg, IP) at disease onset (day 96). The treatment extended survival, reduced weight loss and improved the neurologic symptoms. […] The average weight within the groups before the treatment was similar.
While compounds which increase SOD2 expression and activity have potential utility in a number of neurodegenerative diseases involving ROS overproduction, it was decided to test these two compounds in a mouse model of ALS for a variety of reasons, including the evidence for oxidative stress in ALS (described above), the ability of these compounds to induce SOD2 in a motor neuron-like mouse cell line (NSC-34; FIG. 3B), and the availability of a mouse model with dysfunction in SOD1 (human SOD1 G93A transgenic mouse; Jackson Laboratory). The pilot experiment involved treating six wildtype and six SOD1 G93A transgenic males on the C57BL/6 background with 25 mg/kg compound no. 1 and compound no. 2 I.P. daily, beginning around disease onset (day 96; FIG. 4A and FIG. 4B). Mouse survival and behavioral phenotype were observed based on guidelines from “Working with ALS mice: JAX handbook,” using a 4-point severity score (FIG. 4C).
Referring to FIG. 4A and FIG. 4B, SOD1 G93A mice received daily IP injections of saline (control) or compounds (25 mg/kg) starting on day 96.
Referring. To FIG. 4C, progression from neurological score 1 was delayed only by compound no. 2 (2 day delay, +30%), progression to higher (worse) scores was delayed by both compounds. *P<0.05; **P<0.01, 2-way ANOVA.

NF-κB = assay: High throughput assay for NF-κB reporter activity (luciferase) in stably transfected SH-SY5Y cells; assay type: cell-based, human; conditions: Homo sapiens; for maximal fold induction: 24 h, read-out: Emax; for EC50: 24 hr, read-out: EC50
Protocol: SH-SY5Y human neuroblastoma cell line was obtained from the American Tissue Culture collection (ATCC). A commercially available expression vector containing the NF-kB promoter enhancer region driving the firefly luciferase gene expression and a second plasmid containing the gene conferring resistance to blasticidin were used in a dual transfection approach to obtain a stable cell line. […] Luciferase activity was measured as a reporter of NF-kB activation using the Bright-Glo Luciferase assay kit (Cat. No. E2620, Promega, Madison, Wis.) according to the manufacturer's instructions. Cell viability was measured using the CellTiter-Glo Luminescent Cell Viability assay kit (Cat. No. G7572, Promega, Madison, Wis.) according to the manufacturer's instructions. Briefly, cells were equilibrated at room temperature for 30 min prior to the addition of Bright-Glo to the white opaque plates or CellTiter-Glo to the black clear bottom plates. A volume of assay buffer equal to the volume of cell media was added to each well and incubated for five min to allow complete cell lysis. All procedures were performed in the dark.

[2] = Plasma and brain levels after I.P. dosing of SOD1 G93A mice; assay type: in vivo; conditions: 50 mg/kg I.P., within 30 minutes
SOD2 [3] = assay: SOD2 protein expression and SOD activity in primary rat cortical cultures; assay type: cell-based
Description: N=3-6/group, mean+/−SEM, *p<0.05, **p<0.01, 2-way ANOVA, post-hoc t-test.

In vivo PK (I.V./P.O.) = assay: In vivo PK (I.V./P.O.); design: species or system mice; conditions: for half-life: male, CD1, mouse, plasma
Protocol: Before the studies above were initiated, congenic SOD1 G93A mice were dosed with 50 mg/kg of compound no. 1 and compound no. 2 via I.P. injection to rule out any toxicity issues prior to initiating the efficacy study (FIG. 4A-C).
The experiments will involve the administration of compounds to 5-6 week old CD1 male mice. Mice are dosed by either a 1 mg/kg IV bolus or 5 mg/kg oral gavage. Blood samples are collected by cardiac puncture at 0, 0.25, 0.5, 1, 2, 4, 6, 8, 12, and 24 hrs. There will be three mice per time point. Plasma concentration over time will be determined by LC/MS from which the standard PK parameters of clearance, volume of distribution, t1/2 and % F can be derived using WinNoLin software (Pharsight Inc.). This will require a total of 60 mice per compound. Plasma will be analyzed by reverse phase chromatography with MS/MS detection operating in the positive ion mode using multiple reaction monitoring using an internal standard and Applied Biosystems Analyst 1.4 software. Peak time (when maximum plasma drug concentration occurs), peak drug level [approximate maximum concentrations of drug in plasma (Cmax)] and t1/2 for drug elimination will be estimated for each tested compound. Bioavailability (F) will be calculated from the ratio of AUCPO/AUCIV and expressed as a percentage. To determine levels in brain, six additional mice will be dosed with 1 mg/kg I.V. and sacrificed at 0.25 and 1 hr. Brain and spinal cord samples will be collected at these two time points, quick frozen in an ice box and kept at −75±15° C. All samples will be weighed and homogenized with phosphate buffered saline (PBS) by brain weight (g) to PBS volume (mL) ratio 1:3 before analysis. The actual concentration is the detected value multiplied by the dilution factor.

SOD2 [4] = assay: Quantitative RT-PCR for SOD2 mRNA in NSC-34 neuroblastoma cells; assay type: cell-based, mouse; conditions: NSC-34, 1 μM, 24 h
SOD2 [5] = assay: Quantitative RT-PCR for SOD2 mRNA in SH-SY5Y neuroblastoma cells; assay type: cell-based, human; conditions: 1 μM, 6 h
Protocol: Referring to FIG. 1A and FIG. 1B, SH-SY5Y neuroblastoma cells were treated with vehicle or compounds (1 μM) for 6 or 24 hours, and cells were collected for RNA isolation (Trizol method). Quantitative RT-PCR for Manganese superoxide dismutase (SOD2; FIG. 1A) or brain-derived neurotrophic factor (BDNF, exon 1; FIG. 1B) indicates short-term upregulation of SOD2 and BDNF and sustained upregulation of BDNF (n=3-4/group, one-way ANOVA followed by unpaired t-test; […]).
Referring to FIG. 6, treatment of SH-SY5Y neuroblastoma cells with compounds (1 μM, 6 h) induced SOD2 mRNA expression >2 fold, as detected by q-RT-PCR. N=4/group, mean+/−SEM, 2-way ANOVA, post-hoc t-test. *p<0.05).

Solubility = assay type: physicochemical; conditions: buffer, pH 7.4, aqueous buffer, kinetic from dmso stock
Description: A standard panel of in vitro ADME assays will be utilized to assess drug-like properties of compounds and to inform subsequent in vivo PK studies. These assays include: (a) Permeability: MDCK (Madin Darby Canine Kidney) cells transfected with the MDR1 gene encoding for the multi-drug resistant transporter (Pgp) will be utilized to determine a compound's ability to permeate the membrane in apical to basolateral (A-B) and basolateral to apical (B-A) directions. The derived apparent permeability coefficient (Papp) provides an estimate of passive permeability; a ratio of Papp in the B-A/A-B direction gives an estimate of transporter efflux; (b) Solubility: Kinetic solubility is an important parameter for accurate determinations of the dose response. This is estimated using the shake flask method with a μSol Explorer (PION, Billerica, Mass.) at pH 7.4. Compounds are added as a DMSO solution to buffer. The average of two determinations at pH 7.4 will be reported. Solubility at pH 7.4 is relevant for in vitro assays; (c) Metabolic Stability: The potential for a high metabolic clearance compound is estimated using a liver microsome assay. […] The disappearance of the parent molecule is measured by liquid chromatography/mass spectroscopy (LC/MS) detection. […]

[6] = I.V./P.O., 1 and 5 mg/kg, respectively
[7] = I.V./P.O., 1 and 5 mg/kg, respectively, read-out: plasma half-life (t1/2)

O=C(/C=C\Nc1ccccc1Br)c1ccc2c(c1)OCO2 [Compound 1, (Z)-1-(Benzo[d][1,3]dioxol-5-yl)-3-((2-bromophenyl)amino)prop-2-en-1-one]
progression to higher (worse) neurological scores / score of 4 [1]: delayed
survival [1]: significantly prolonged
maximal fold induction (NF-κB): 26
EC50 (NF-κB): 500 nM
plasma and brain levels [2]: substantial plasma and brain levels
SOD2 protein expression (SOD2 [3]): induce SOD2
SOD activity (SOD2 [3]): increase
oral bioavailability (In vivo PK (I.V./P.O.); [6]): lack of oral bioavailability
half-life (In vivo PK (I.V./P.O.); [7]): < 5 min
SOD2 mRNA expression (SOD2 [4]): induce SOD2
SOD2 mRNA expression (SOD2 [5]; q-RT-PCR): ~2 fold
SOD2 mRNA expression (SOD2 [5]; SH-SY5Y): induce SOD2

Cc1cccnc1Nc1nc(-c2ccccn2)cs1 [Compound 2]
progression to higher (worse) neurological scores / score of 4 [1]: delayed
survival [1]: significantly prolonged
maximal fold induction (NF-κB): 40
EC50 (NF-κB): 210 nM
plasma and brain levels [2]: substantial plasma and brain levels
SOD2 protein expression (SOD2 [3]): induce SOD2
SOD activity (SOD2 [3]): increase
oral bioavailability (In vivo PK (I.V./P.O.); [6]): lack of oral bioavailability
half-life (In vivo PK (I.V./P.O.); [7]): < 5 min
SOD2 mRNA expression (SOD2 [4]): induce SOD2
SOD2 mRNA expression (SOD2 [5]; q-RT-PCR): ~2 fold
SOD2 mRNA expression (SOD2 [5]; SH-SY5Y): induce SOD2

O=C(O)c1cccc(-c2cnc(Nc3ccccc3F)o2)c1 [Compound 40, 3-(2-((2-Fluorophenyl)amino)oxazol-5-yl)benzoic Acid]
solubility (Solubility): 56 µM (≈ 16.7 µg/mL)
half-life (In vivo PK (I.V./P.O.); iv, 1 mg/kg, I.V., read-out: I.V. t1/2 (converted)): 84 min
orally bioavailable (In vivo PK (I.V./P.O.); oral): 16%
